Measured values taken from patent US9368421B2, “Under-fill material and method for producing semiconductor device” (NITTO DENKO CORPORATION, priority 2011, dated 2016).

Assay: Acid dissociation constant pKa of flux agent
Details: for pKa: dilute aqueous solution; for pKa1: first dissociation constant of a dicarboxylic acid
Procedure: The pKa can be determined by measuring an acid dissociation constant Ka=[H3O][B^−]/[BH] under the condition of a dilute aqueous solution of the carboxyl group-containing compound and using the equation of pKa=−log Ka. Here, BH represents a carboxyl group-containing compound, and B^− represents a conjugate base of the carboxyl group-containing compound. The pKa can be measured in such a manner that a hydrogen ion concentration is measured using a pH meter, and the pKa is calculated from the concentration of a relevant substance and the hydrogen ion concentration.

SMILES: O=C(O)C1CCCCC1C(=O)O (stereo not shown)
- pKa: 4.4
- pKa1: 4.4

SMILES: O=C(O)c1c(O)cccc1O [2,6-dihydroxybenzoic acid]
- pKa: 1.2

SMILES: O=C(O)c1ccccc1[N+](=O)[O-] [2-nitrobenzoic acid]
- pKa: 2.5

SMILES: O=C(O)c1ccccc1-c1ccccc1 [2-phenylbenzoic acid]
- pKa: 3.5

SMILES: O=C(O)CCCCCCCCCCC(=O)O [Dodecanedioic acid, dodecanedioic acid]
- pKa: 5
- pKa1: 5.0

SMILES: O=C(O)CCCCCCC(=O)O [Octanedioic acid, octanedioic acid]
- pKa: 4.5
- pKa1: 4.5

SMILES: CN(C)c1ccc(C(=O)O)cc1 [p-dimethylaminobenzoic acid]
- pKa: 4.9
